Patent US20080145876A1, “POLY(ETHYLENE GLYCOL) ANTI-BODY DETECTION ASSAYS AND KITS FOR PERFORMING THEREOF” (University of Southern California, priority 2006, published 2008)

How the values were obtained:
anti-PEG = assay: Inhibition of PEG-RBC agglutination by polymers/small ethers added to anti-PEG positive sera (anti-PEG epitope study, tube test); format: binding, human; conditions: for Agglutination Score of PEG-RBCs: compound added at 1% w/v, PBS control 4+; for Effect on PEG-RBC agglutination (inhibition): three 4+ anti-PEG positive sera, 1% (w/v) final concentration
Description: One drop of RBCs (PEG-coated or control (uncoated) RBCs) at 5% hct were added to 2 drops of plasma. Samples were incubated at room temperature for 15 minutes and then centrifuged at 1000×g for 1 minute. Agglutination of PEG-coated or uncoated (control) RBCs by each plasma sample was scored according to the 0-4+ scale.
The polymer and small ether solutions were added to anti-PEG positive sera at a 1:1 (v/v) ratio giving a final polymer/small ether concentration of 1% (w/v) and incubated for 30 minutes at room temperature. […] Inhibition of agglutination by the smallest ether molecule tested determined the anti-PEG epitope.

[1] = ASNase activity in sera of PEG-ASNase-treated ALL patients (microplate technique) versus anti-PEG status; format: in vivo, human
Description: Stored serum samples were collected from 28 pediatric acute lymphoblastic leukemia (ALL) patients who received the chemotherapy agent, PEG-conjugated asparaginase (PEG-ASNase). Sera were assayed for ASNase activity using a microplate technique. Testing for anti-PEG was performed by serology as described in Example 1 and by flow cytometry as described in Example 3.

## COCCOCCOCCOC [Triethylene Glycol Dimethyl Ether]
anti-PEG; Anti-PEG Positive Donor A
  Agglutination Score of PEG-RBCs: 0^
anti-PEG; Anti-PEG Positive Donor B
  Agglutination Score of PEG-RBCs: 0^
anti-PEG; Anti-PEG Positive Donor C
  Agglutination Score of PEG-RBCs: 0^
anti-PEG
  Effect on PEG-RBC agglutination (inhibition): Complete inhibition of agglutination

## OCCO [Ethlyene Glycol]
anti-PEG
  Effect on PEG-RBC agglutination (inhibition): no effect

## OCCOCCO [Diethylene Glycol]
anti-PEG
  Effect on PEG-RBC agglutination (inhibition): no effect

## COCCOCCOCCOCCOC [Tetraethylene Glycol Dimethyl Ether]
anti-PEG; Anti-PEG Positive Donor A
  Agglutination Score of PEG-RBCs: 0^
anti-PEG; Anti-PEG Positive Donor B
  Agglutination Score of PEG-RBCs: 0^
anti-PEG; Anti-PEG Positive Donor C
  Agglutination Score of PEG-RBCs: 0^
anti-PEG
  Effect on PEG-RBC agglutination (inhibition): Complete inhibition of agglutination

## OCCOCCOCCO [Triethylene Glycol]
anti-PEG
  Effect on PEG-RBC agglutination (inhibition): no effect

## CCOCCOCCOCC [Diethylene Glycol Diethyl Ether]
anti-PEG
  Effect on PEG-RBC agglutination (inhibition): reduced PEG-RBC agglutination (4+ to 2+)

B1: PEG-asparaginase: chemotherapy agent, PEG-conjugated asparaginase (PEG-ASNase) (conjugate, UniProt P00805 23-348, looked up)
L-asparaginase 2: LPNITILATGGTIAGGGDSATKSNYTVGKVGVENLVNAVPQLKDIANVKGEQVVNIGSQDMNDNVWLTLAKKINTDCDKTDGFVITHGTDTMEETAYFLDLTVKCDKPVVMVGAMRPSTSMSADGPFNLYNAVVTAADKASANRGVLVVMNDTVLDGRDVTKTNTTDVATFKSVNYGPLGYIHNGKIDYQRTPARKHTSDTPFDVSKLNELPKVGIVYNYANASDLPAKALVDAGYDGIVSAGVGNGNLYKSVFDTLATAAKTGTAVVRSSRVPTGATTQDAEVDDAKYGFVASGTLNPQKARVLLQLALTQTKDPQQIQQIFNQY
modifications: PEG conjugate
[1]; IgM anti-PEG positive patients by flow cytometry (n=13)
  mean ASNase activity: 12 U/L
[1]; all anti-PEG positive patient sera, serology or flow cytometry
  ASNase activity: low or undetectable
[1]; anti-PEG negative patients by flow cytometry (n=15)
  mean ASNase activity: 438 U/L
[1]; anti-PEG negative patients by serology (n=19)
  mean ASNase activity: 353 U/L
[1]; anti-PEG positive patients by serology (n=9)
  ASNase activity: undetectable
[1]; one anomalous sample, weakly positive for anti-PEG IgM and positive for anti-ASNase
  ASNase activity: 123 U/L
